# Assay results: paper PMC7794376 (Nature Communications, 2021)
# Read-outs that look alike come from different tables or passages of the source.
# Key:
# M. tuberculosis H37Rv = assay: MIC determination in different media; assay type: cell-based; settings: Mycobacterium tuberculosis, read-out: Minimum inhibitory concentration (MIC)
# MtbCoaBC [1] = molecular target: T1, MtbCoaBC (Mycobacterium tuberculosis, UniProt P9WNZ1); assay: High-throughput end-point pyrophosphate quantification assay (Biomol Green); assay type: biochemical; settings: MtbCoaB activity; end-point, 2 µM CTP, 40 µM L-cysteine, 30 µM PPA; read-out: IC50 biomol green assay
# T1 sequence (P9WNZ1 whole entry): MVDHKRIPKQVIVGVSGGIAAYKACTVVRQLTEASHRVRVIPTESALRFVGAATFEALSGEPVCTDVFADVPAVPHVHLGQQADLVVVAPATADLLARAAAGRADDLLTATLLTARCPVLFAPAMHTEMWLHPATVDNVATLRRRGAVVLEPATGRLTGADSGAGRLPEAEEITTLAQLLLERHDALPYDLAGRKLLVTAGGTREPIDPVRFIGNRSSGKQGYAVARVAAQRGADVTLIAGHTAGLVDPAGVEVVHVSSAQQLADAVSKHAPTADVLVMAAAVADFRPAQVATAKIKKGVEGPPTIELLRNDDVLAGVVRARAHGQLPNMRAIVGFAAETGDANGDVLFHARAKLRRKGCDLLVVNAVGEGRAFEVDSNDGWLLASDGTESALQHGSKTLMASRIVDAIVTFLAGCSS
# MtbCoaBC [2] = molecular target: T1, MtbCoaBC; assay: biochemical; assay type: biochemical; settings: for activity at 0.03125 µM / activity at 0.0625 µM / activity at 0.25 µM / activity at 0.5 µM / activity at 1 µM / activity at 2 µM: relative to average DMSO CT; for Activity R1 / Activity R3: slope of absorbance at 360 nm vs time (s); for IC50: read-out: IC50 EnzChek MtbCoaBC
# [3] = uM 1c 0.125 as printed, replicates R1-R3
structure (smiles),measurement,setting,value
O=c1cc(-c2ccc(O)cc2)oc2c(O)c(O)ccc12 [2e],MIC,M. tuberculosis H37Rv; 7H9/ADC/Glycerol,> 250 µM
same,MIC,M. tuberculosis H37Rv; GAST/Fe,125 µM
same,IC50,MtbCoaBC [1],2.2 µM
same,inhibition at 0.03125 µM,"MtbCoaBC [2]; 0.03125 uM 2e, replicate R1, read-out: Inhibition % R1",5.66%
same,activity at 0.03125 µM,"MtbCoaBC [2]; 0.03125 uM 2e, replicate R1, read-out: Activity % R1",94.3%
same,Activity R1,"MtbCoaBC [2]; 0.03125 uM 2e, replicate R1",0.0001715
same,inhibition at 0.03125 µM,"MtbCoaBC [2]; 0.03125 uM 2e, replicate R2, read-out: Inhibition % R2",2.73%
same,activity at 0.03125 µM,"MtbCoaBC [2]; 0.03125 uM 2e, replicate R2, read-out: Activity % R2",97.3%
same,inhibition at 0.03125 µM,"MtbCoaBC [2]; 0.03125 uM 2e, replicate R3, read-out: Inhibition % R3",8.32%
same,activity at 0.03125 µM,"MtbCoaBC [2]; 0.03125 uM 2e, replicate R3, read-out: Activity % R3",91.7%
same,Activity R3,"MtbCoaBC [2]; 0.03125 uM 2e, replicate R3",0.0001667
same,inhibition at 0.0625 µM,"MtbCoaBC [2]; 0.0625 uM 2e, replicate R1, read-out: Inhibition % R1",10.7%
same,activity at 0.0625 µM,"MtbCoaBC [2]; 0.0625 uM 2e, replicate R1, read-out: Activity % R1",89.3%
same,Activity R1,"MtbCoaBC [2]; 0.0625 uM 2e, replicate R1",0.0001624
same,inhibition at 0.0625 µM,"MtbCoaBC [2]; 0.0625 uM 2e, replicate R2, read-out: Inhibition % R2",12.6%
same,activity at 0.0625 µM,"MtbCoaBC [2]; 0.0625 uM 2e, replicate R2, read-out: Activity % R2",87.4%
same,inhibition at 0.0625 µM,"MtbCoaBC [2]; 0.0625 uM 2e, replicate R3, read-out: Inhibition % R3",12.3%
same,activity at 0.0625 µM,"MtbCoaBC [2]; 0.0625 uM 2e, replicate R3, read-out: Activity % R3",87.7%
same,Activity R3,"MtbCoaBC [2]; 0.0625 uM 2e, replicate R3",0.0001594
same,inhibition at 0.25 µM,"MtbCoaBC [2]; 0.25 uM 2e, replicate R1, read-out: Inhibition % R1",38.7%
same,activity at 0.25 µM,"MtbCoaBC [2]; 0.25 uM 2e, replicate R1, read-out: Activity % R1",61.3%
same,Activity R1,"MtbCoaBC [2]; 0.25 uM 2e, replicate R1",0.0001114
same,inhibition at 0.25 µM,"MtbCoaBC [2]; 0.25 uM 2e, replicate R2, read-out: Inhibition % R2",33.5%
same,activity at 0.25 µM,"MtbCoaBC [2]; 0.25 uM 2e, replicate R2, read-out: Activity % R2",66.5%
same,inhibition at 0.25 µM,"MtbCoaBC [2]; 0.25 uM 2e, replicate R3, read-out: Inhibition % R3",37.4%
same,activity at 0.25 µM,"MtbCoaBC [2]; 0.25 uM 2e, replicate R3, read-out: Activity % R3",62.6%
same,Activity R3,"MtbCoaBC [2]; 0.25 uM 2e, replicate R3",0.0001138
same,inhibition at 0.5 µM,"MtbCoaBC [2]; 0.5 uM 2e, replicate R1, read-out: Inhibition % R1",54.7%
same,activity at 0.5 µM,"MtbCoaBC [2]; 0.5 uM 2e, replicate R1, read-out: Activity % R1",45.3%
same,Activity R1,"MtbCoaBC [2]; 0.5 uM 2e, replicate R1",0.000082371
same,inhibition at 0.5 µM,"MtbCoaBC [2]; 0.5 uM 2e, replicate R2, read-out: Inhibition % R2",61.3%
same,activity at 0.5 µM,"MtbCoaBC [2]; 0.5 uM 2e, replicate R2, read-out: Activity % R2",38.7%
same,inhibition at 0.5 µM,"MtbCoaBC [2]; 0.5 uM 2e, replicate R3, read-out: Inhibition % R3",57.9%
same,activity at 0.5 µM,"MtbCoaBC [2]; 0.5 uM 2e, replicate R3, read-out: Activity % R3",42.1%
same,Activity R3,"MtbCoaBC [2]; 0.5 uM 2e, replicate R3",0.000076593
same,inhibition at 1 µM,"MtbCoaBC [2]; 1 uM 2e, replicate R1, read-out: Inhibition % R1",69.6%
same,activity at 1 µM,"MtbCoaBC [2]; 1 uM 2e, replicate R1, read-out: Activity % R1",30.4%
same,Activity R1,"MtbCoaBC [2]; 1 uM 2e, replicate R1",0.000055348
same,inhibition at 1 µM,"MtbCoaBC [2]; 1 uM 2e, replicate R2, read-out: Inhibition % R2",78.2%
same,activity at 1 µM,"MtbCoaBC [2]; 1 uM 2e, replicate R2, read-out: Activity % R2",21.8%
same,inhibition at 1 µM,"MtbCoaBC [2]; 1 uM 2e, replicate R3, read-out: Inhibition % R3",75.2%
same,activity at 1 µM,"MtbCoaBC [2]; 1 uM 2e, replicate R3, read-out: Activity % R3",24.8%
same,Activity R3,"MtbCoaBC [2]; 1 uM 2e, replicate R3",0.000045005
same,inhibition at 2 µM,"MtbCoaBC [2]; 2 uM 2e, replicate R1, read-out: Inhibition % R1",96.5%
same,activity at 2 µM,"MtbCoaBC [2]; 2 uM 2e, replicate R1, read-out: Activity % R1",3.46%
same,Activity R1,"MtbCoaBC [2]; 2 uM 2e, replicate R1",0.000006285
same,inhibition at 2 µM,"MtbCoaBC [2]; 2 uM 2e, replicate R2, read-out: Inhibition % R2",91.3%
same,activity at 2 µM,"MtbCoaBC [2]; 2 uM 2e, replicate R2, read-out: Activity % R2",8.65%
same,inhibition at 2 µM,"MtbCoaBC [2]; 2 uM 2e, replicate R3, read-out: Inhibition % R3",93%
same,activity at 2 µM,"MtbCoaBC [2]; 2 uM 2e, replicate R3, read-out: Activity % R3",6.96%
same,Activity R3,"MtbCoaBC [2]; 2 uM 2e, replicate R3",0.000012661
same,IC50,MtbCoaBC [2],3 ± 0.2 µM
Oc1ccc(Cc2ccc(O)c(O)c2O)cc1 [compound 1c],MIC,M. tuberculosis H37Rv; 7H9/ADC/Glycerol,> 250 µM
same,MIC,M. tuberculosis H37Rv; GAST/Fe,125 µM
same,IC50,MtbCoaBC [1],4.7 µM
same,IC50,MtbCoaBC [2],4.6 ± 0.4 µM
same,remaining activity at 0.03125 µM,"MtbCoaBC [2]; uM 1c 0.03125 as printed, replicates R1-R3",94.6%
same,remaining activity at 0.0625 µM,"MtbCoaBC [2]; uM 1c 0.0625 as printed, replicates R1-R3",87.8%
same,inhibition at 0.0625 µM,"MtbCoaBC [2]; uM 1c 0.0625 as printed, replicates R1-R3, read-out: Inhibition %",17.8%
same,inhibition at […],MtbCoaBC [2]; [3],29.1%
same,remaining activity at […],MtbCoaBC [2]; [3],74.8%
same,remaining activity at 0.25 µM,"MtbCoaBC [2]; uM 1c 0.25 as printed, replicates R1-R3",65.6%
same,inhibition at 0.25 µM,"MtbCoaBC [2]; uM 1c 0.25 as printed, replicates R1-R3, read-out: Inhibition %",40.6%
same,remaining activity at 0.5 µM,"MtbCoaBC [2]; uM 1c 0.5 as printed, replicates R1-R3",40.9%
same,inhibition at 0.5 µM,"MtbCoaBC [2]; uM 1c 0.5 as printed, replicates R1-R3, read-out: Inhibition %",68.6%
same,inhibition at 1 µM,"MtbCoaBC [2]; uM 1c 1 as printed, replicates R1-R3, read-out: Inhibition %",89.7%
same,inhibition at 2 µM,"MtbCoaBC [2]; uM 1c 2 as printed, replicates R1-R3, read-out: Inhibition %",95%
